Laboratory results taken from patent publication US4504492A, “Pharmaceutical amides, and preparation, formulations and use thereof” (Burroughs Wellcome Co., priority 1981, dated 1985).
Where two headings read alike, the source gives them in different places.

Legend:
`Enkephalinase` = molecular target: T1, `Enkephalinase` (Mus musculus, UniProt Q61391); assay: Activity ex vivo: `enkephalinase` activity in lung and brain homogenates of mice dosed i.p. with test compound; conditions: for ED50: mouse, ip, 0.25 h; for Lung/Brain (ED50 ratio): ratio of apparent ED50 values for lung and brain, 15 min
T1 construct: The lung and brain (less cerebellum) were rapidly dissected, weighed and homogenised; from tissue; host or cells: mouse lung and brain (less cerebellum) homogenate
T1 sequence (Q61391 1-750): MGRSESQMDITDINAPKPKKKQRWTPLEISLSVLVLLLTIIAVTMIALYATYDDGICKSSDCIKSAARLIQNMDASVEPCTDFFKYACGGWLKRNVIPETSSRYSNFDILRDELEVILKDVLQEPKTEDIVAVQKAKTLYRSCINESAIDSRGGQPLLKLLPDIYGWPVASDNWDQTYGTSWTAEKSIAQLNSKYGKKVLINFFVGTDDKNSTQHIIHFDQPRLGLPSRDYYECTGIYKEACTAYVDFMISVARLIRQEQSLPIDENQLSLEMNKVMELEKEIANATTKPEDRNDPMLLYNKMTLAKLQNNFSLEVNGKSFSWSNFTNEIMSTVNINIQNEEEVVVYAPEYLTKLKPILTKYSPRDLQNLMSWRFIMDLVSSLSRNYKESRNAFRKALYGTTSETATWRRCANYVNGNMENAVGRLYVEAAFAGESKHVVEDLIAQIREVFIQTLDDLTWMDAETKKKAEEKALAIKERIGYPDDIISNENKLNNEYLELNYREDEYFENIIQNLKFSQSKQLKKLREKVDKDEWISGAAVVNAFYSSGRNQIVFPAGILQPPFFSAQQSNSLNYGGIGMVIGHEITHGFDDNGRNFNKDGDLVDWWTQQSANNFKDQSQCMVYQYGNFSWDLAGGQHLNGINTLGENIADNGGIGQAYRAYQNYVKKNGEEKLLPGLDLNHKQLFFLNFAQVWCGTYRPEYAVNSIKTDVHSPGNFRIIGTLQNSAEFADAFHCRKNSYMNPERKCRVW
Method: Mice were dosed i.p. with 0-30 mg/Kg of test compound suspended in 0.25% w/v celacol/0.85% w/v saline. The mice were killed 15 minutes after administration of the doses. The lung and brain (less cerebellum) were rapidly dissected, weighed and homogenised in 100 mM tris-HCl pH 7.4 buffer containing 1 uM Captopril to give a 9.1% W/V homogenate. `Enkephalinase` activity in the homogenate was measured by incubation at 37° C. with 100 μM [^3 H]-D-Tyr-D-Ala-L-Gly-L-Gly-L-Phe-L-leu for 10 minutes (lung) or 30 minutes (brain).

ACE and enkephalinase = conditions: specificity for ACE over enkephalinase; Swerts et al; cited from earlier work
enkephalinase Al = molecular target: T2, enkephalinase Al (Rattus norvegicus, UniProt P07861); assay: Enkephalinase-inhibiting activity in vitro (3H-TGG generation from 3H-leucine enkephalin by purified enkephalinase Al); assay type: biochemical; conditions: approximate, determined graphically; leucine enkephalin 5×10^-5 M, 30° C., 30 mins with enzyme; read-out: IC50 (concentration of test compound required for 50% inhibition of 3H-TGG generation)
T2 construct: from tissue; host or cells: rat striatum (membrane pellet, Triton X-100 solubilised, DEAE-cellulose and Sephacryl S-300)
T2 sequence (P07861 1-750): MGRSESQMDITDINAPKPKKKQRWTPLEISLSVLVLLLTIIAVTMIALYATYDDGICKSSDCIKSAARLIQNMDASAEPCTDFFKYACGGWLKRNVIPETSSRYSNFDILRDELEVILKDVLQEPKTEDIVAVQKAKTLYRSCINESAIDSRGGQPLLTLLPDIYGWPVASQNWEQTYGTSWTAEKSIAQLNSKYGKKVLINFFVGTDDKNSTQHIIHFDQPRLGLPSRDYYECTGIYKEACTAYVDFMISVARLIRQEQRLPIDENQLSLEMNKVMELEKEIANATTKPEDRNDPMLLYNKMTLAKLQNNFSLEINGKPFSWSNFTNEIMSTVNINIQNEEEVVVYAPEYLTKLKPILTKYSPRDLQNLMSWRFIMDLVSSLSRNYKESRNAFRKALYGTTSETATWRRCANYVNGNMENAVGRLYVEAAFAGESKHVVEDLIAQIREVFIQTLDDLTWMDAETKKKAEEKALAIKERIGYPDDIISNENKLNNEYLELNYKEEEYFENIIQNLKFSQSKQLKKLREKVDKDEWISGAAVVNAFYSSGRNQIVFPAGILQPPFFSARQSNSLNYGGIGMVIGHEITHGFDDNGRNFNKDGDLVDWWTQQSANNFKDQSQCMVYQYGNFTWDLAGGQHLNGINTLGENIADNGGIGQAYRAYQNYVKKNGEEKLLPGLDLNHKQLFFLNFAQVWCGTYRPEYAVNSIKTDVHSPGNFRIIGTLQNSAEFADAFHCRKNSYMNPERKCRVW
Method: The compounds were investigated for enkephalinase inhibiting activity using the following method.
Rats were killed by decapitation and the striata dissected out on ice. The pooled tissues were homogenised on ice-cold Tris/hydrochloric acid buffer (50 mM, pH 7.70, 30 ml per gram of tissue) and centrifuged (50,000 g, 15 mins). The resulting supernatent was discarded and the remaining pellet washed three times. The washed pellet was solubilised by resuspension in half the volume of buffer as before containing 1.0% (v/v) Triton X-100 and incubated at 37° C. for 45 mins. The suspension was then centrifuged at 100,000 g for 60 mins and the solubilised enzymes contained in the supernatant separated by DEAE-cellulose column chromatography. Enkephalinase Al was further purified by Sephacryl S.300 chromatograph.
Enkephalinase-inhibiting activity was estimated by the following procedure.
Separation of (a) unchanged ^3 H-leucine enkephalin and (b) ^3 H-Tyr-Gly-OH(^3 H-TGG), generated from (a) by enkephalinase Al in the incubation mixture was effected by thin layer chromatography (plastic silica gel plates of 0.1 mm layer thickness, solvent system ethyl acetate:propan-2-ol:5% (v/v) acetic acid, 2:2:1) using solutions of the cold compounds as carriers. After drying the materials were visualized with ninhydrin and appropriate areas of the plates cut out and placed in scintillation vials containing 50% methanol/0.1M hydrochloric acid to elute the ^3 H label. Bioflor reagent (10 ml) was then added and the radioactivity determined by liquid scintillation counting.

[1] = brain (less cerebellum) homogenate, 15 minutes after administration, read-out: Apparent ED50 Brain
[2] = lung homogenate, 15 minutes after administration, read-out: Apparent ED50 Lung

Row | ED50 (`Enkephalinase`; [1]) [µmol/kg] | ED50 (`Enkephalinase`; [2]) [µmol/kg] | SMILES | IC50 (enkephalinase Al) [nM] | also measured
1 | 3.92 | 0.69 | O=C(O)CNC(=O)C(CS)Cc1ccccc1 (racemic) [Thiorphan, (DL-3-mercapto-2-benzylpropanoyl)-glycine, reference compound] |  | 
2 |  |  | C[C@H](CS)C(=O)N1CCC[C@H]1C(=O)O [Captopril, 1-(D-3-mercapto-2-methylpropanoyl)-L-proline (S,S)] |  | concentration required to inhibit ACE by 50% lower than that required for the same inhibition of enkephalinase (ACE and enkephalinase): approximately 1000 fold
3 | 14.6 | 6.1 | CC(C)C[C@H](NC(=O)C(Cc1ccccc1)C(=O)NO)C(=O)O (stereo partly drawn) [Compound 1, N-[2-(N-Hydroxycarbamoyl)-3-phenylpropanoyl]-L-leucine] | 19 | Lung/Brain (ED50 ratio) (`Enkephalinase`): 2.4
4 |  |  | CC(C)C[C@H](NC(=O)C(Cc1ccc(C(C)C)cc1)C(=O)NO)C(=O)O (stereo partly drawn) [Compound 2, N-[2-(N-Hydroxycarbamoyl)-3-(4-isopropylphenyl)propanoyl]-L-leucine] | 120 | 
5 |  |  | COc1ccc(CC(C(=O)NO)C(=O)N[C@@H](CC(C)C)C(=O)O)cc1 (stereo partly drawn) [Compound 3, N-[2-(N-Hydroxycarbamoyl)-3-(4-methoxyphenyl)-propanoyl]-L-leucine] | 750 | 
6 | > 85.7 | 8.6 | CCOC(=O)[C@H](CC(C)C)NC(=O)C(Cc1ccccc1)C(=O)NO (stereo partly drawn) [Compound 4, Ethyl N-[(DL)-2-hydroxycarbamoyl)-3-phenylpropanoyl]-L-leucinate] |  | Lung/Brain (ED50 ratio) (`Enkephalinase`): > 10
7 |  | > 26.5 | CC(C)C[C@H](NC(=O)C(Cc1ccccc1)C(=O)NO)C(=O)OC(C)(C)C (stereo partly drawn) [Compound 6, Tert-butyl N-[(DL)-2-hydroxycarbamoyl)-3-phenylpropanoyl]-L-leucinate] |  | Apparent ED50 Brain (`Enkephalinase`; brain (less cerebellum) homogenate, 15 minutes after administration): No inhibn. at 26.5
8 |  |  | CC(C)C[C@H](NC(=O)C(Cc1ccc([N+](=O)[O-])cc1)C(=O)NO)C(=O)O (stereo partly shown) [Compound 9] | 520 | 
9 |  |  | CC(C)C[C@H](NC(=O)C(Cc1ccc(Br)cc1)C(=O)NO)C(=O)O (stereo partly shown) [Compound 10] | 60 | 
